From patent publication US11026942B2, “Agent for preventing and/or treating Alzheimer's disease” (KYOTO UNIVERSITY, priority 2015, dated 2021)

Tests used:
Assay type in all cases: cell-based, human
[1] = system: sAPPβ; assay: sAPPβ in FAD1 iPS cell-derived nerve cells (secondary screening); set-up: sAPPβ: scale not given here; conditions: secondary screening, FAD1 iPS cell-derived nerve cells
Procedure: (§1) To further study reproducibility of the candidate drugs obtained by the primary screening, secondary screening was conducted. In addition to Aβ40, Aβ42, Aβ42/40 ratio, Aβ38, Aβ43, sAPPα, sAPPβ were also studied and each numerical value was obtained.

[2] = system: sAPPα; assay: sAPPα in FAD1 iPS cell-derived nerve cells (secondary screening); set-up: scale not given here; conditions: secondary screening, FAD1 iPS cell-derived nerve cells
Procedure: as §1

[3] = system: Aβ43; assay: Aβ43 in FAD1 iPS cell-derived nerve cells (secondary screening); set-up: scale not given here
Procedure: as §1

[4] = system: Aβ38; assay: Aβ38 in FAD1 iPS cell-derived nerve cells (secondary screening); set-up: scale not given here
Procedure: as §1

[5] = system: Aβ42; assay: Aβ42 in FAD1 iPS cell-derived nerve cells (primary/secondary screening, dose dependency); conditions: secondary screening, FAD1 iPS cell-derived nerve cells, numerical value (Aβ change rate)
Description: (§2) To perform induction from iPS cells to the cerebral cortex nerve early and with high reproducibility, iPS cells introduced with human Neurogenin 2 gene (NGN2) linked to doxycycline-inducible promoter by using PiggyBac were used (FIG. 1a, FIG. 1b, FIG. 4a and FIG. 4b). IPS cells prepared from 4 patients with familial Alzheimer's disease (FAD), 2 patients with sporadic Alzheimer's disease (SAD) and 4 healthy individuals (HC) were used. The iPS cells were established by the method described in Okita K et al., Nature.
(§3) Structural formulas (those in the form of salt or halide are also described as free form) and the general names of the candidate compounds are shown in Table 1.
as §1

[6] = system: Aβ42/40 ratio; assay: Aβ42/40 ratio in FAD1 iPS cell-derived nerve cells (primary/secondary screening, dose dependency); conditions: secondary screening
Description: as §2, §3, §1

SMILES	sAPPβ [1]	sAPPα [2]	Aβ43 [3]	Aβ38 [4]	Aβ42 [5]	Ratio Aβ42/40 [6]
CN1CCc2cccc3c2[C@H]1Cc1ccc(O)c(O)c1-3 [compound 8, APOMORPHINE]	0.78	0.8	1.01	1.08	0.93	1.01
CCN(CC)CCNC(C(=O)OCCC(C)C)c1ccccc1 (stereo not drawn) [compound 33, CAMYLOFINE]	0.71	0.89	0.88	1.12	0.9	0.85
Nc1ccn([C@@H]2O[C@H](CO)[C@@H](O)[C@@H]2O)c(=O)n1 [compound 115, CYTARABINE]	0.69	0.74	0.81	0.99	0.8	0.9
CCN(CCO)CCCC(C)Nc1ccnc2cc(Cl)ccc12 (stereo not drawn) [compound 72, HYDROXYCHLOROQUINE]	0.72	0.85	0.87	1.08	0.9	1.01
O=c1oc2cc(O)ccc2s1 [compound 92, TIOXOLONE]	0.63	0.76	0.67	0.76	0.55	0.83
CCCCC(=O)N(Cc1ccc(-c2ccccc2-c2nn[nH]n2)cc1)[C@H](C(=O)O)C(C)C [compound 48]	1.13	1.14	1	1.14	0.97	0.9
COc1cc2nc(N(C)CCCNC(=O)C3CCCO3)nc(N)c2cc1OC (stereo not drawn) [compound 81, ALFLUZOSIN]	0.97	0.9	1.03	1.22	0.96	0.87
Oc1c(Cl)cc(Cl)cc1Sc1cc(Cl)cc(Cl)c1O [compound 88, BITHIONOL]	0.92	0.78	0.85	1.03	0.93	0.97
O=C1c2ccccc2C(=O)C1c1ccc(Cl)cc1 [compound 127, CHLORINDIONE]	0.67	0.74	0.87	0.92	0.79	0.85
Nc1ccc(S(=O)(=O)c2ccc(N)cc2)cc1 [compound 120, DAPSONE]	0.6	0.74	0.8	1.06	0.83	0.84
CN1CCCN=C1COC(=O)C(O)(c1ccccc1)C1CCCCC1 (stereo not drawn) [compound 1, OXYPHENCYCLIMINE]	1	0.91	0.98	1.08	0.99	1.03
O=c1c2ccccc2[se]n1-c1ccccc1 [compound 45, EBSELEN]	1.35	1.17	1.16	1.2	1	1.04
CNCCCN1c2ccccc2CCc2ccccc21 [compound 13, DESIPRAMINE]	1.01	0.83	0.9		0.94	
Cc1cccc(C(=O)O)c1O [compound 67, HYDROXYTOLUIC ACID]	0.66	0.83	0.77	0.92	0.79	0.86
CCOC(=O)c1ccc(N)cc1 [compound 51, BENZOCAINE]	0.87	0.8	0.99	1.05	0.94	1.03
CC(C)(Sc1cc(C(C)(C)C)c(O)c(C(C)(C)C)c1)Sc1cc(C(C)(C)C)c(O)c(C(C)(C)C)c1 [compound 96, PROBUCOL]	1.07	1	0.65	0.75	0.6	0.7
CN1CCN(C(c2ccccc2)c2ccccc2)CC1 [compound 12, CYCLIZINE]	1.3	1.03	1.06	1.23	1.04	0.95
O=C(O)C(O)[C@H](O)[C@@H](O)[C@H](O)[C@H](O)CO (stereo partly drawn) [compound 56, GLUCOHEPTONIC ACID]	1.19	1.22	1.32	1.21	0.98	1.09

SMILES	sAPPβ [1]	sAPPα [2]	Aβ43 [3]	Aβ38 [4]	Aβ42 [5]	Ratio Aβ42/40 [6]
CC(C)n1c(/C=C/[C@H](O)C[C@@H](O)CC(=O)O)c(-c2ccc(F)cc2)c2ccccc21 [compound 60, FLUVASTATIN]	1.14	0.99	1.04	1.16	0.96	0.84
COc1cccc([C@@]2(O)CCCC[C@@H]2CN(C)C)c1 [compound 99, TRAMADOL]	1.11	1.04	1.02	1.17	0.98	0.93
Cc1cc2c(cc1S(N)(=O)=O)S(=O)(=O)CCC2 [compound 119]	0.87	1.07	1.16	1.14	0.74	0.78
C/N=C(\NC#N)NCCSCc1nc[nH]c1C [compound 79, CIMETIDINE]	0.88	0.87	0.92	1.03	0.98	1.04
CC(=O)Nc1ccc(OC(C)=O)cc1 [compound 68, DIACETAMATE]	0.86	0.98	0.97	1.08	0.86	0.76
Cc1c(C(N)=O)cc([N+](=O)[O-])cc1[N+](=O)[O-] [compound 95, DINITOLMIDE]	1.02	0.95	0.98	1	0.9	0.95
Cc1cccc(O)c1 [compound 89, CRESOL]	0.58	0.71	0.89	0.93	0.81	0.91
O=C(O)c1cccnc1Nc1cccc(C(F)(F)F)c1 [compound 37, NIFLUMIC ACID]	0.92	0.8	0.85	0.97	0.77	0.86
CN(C)CCCN1c2ccccc2CCc2ccccc21 [compound 17, IMIPRAMINE]	1.2		1.27	1.12		
COc1ccc(CN2CCNCC2)c(OC)c1OC [compound 84, TRIMETAZIDINE]	1.04	1.15	1.09	1.04	1.01	0.93
CCN(CC)CCOc1ccc(/C(=C(\Cl)c2ccccc2)c2ccccc2)cc1 [compound 9, CLOMIPHENE]	0.66	0.71	0.86	1.04	0.83	0.89
NCCCCCC(=O)O [compound 49, AMINOCAPROIC ACID]	0.9	0.99	0.97	1.1	0.96	1
CC1CC(OC(=O)C(O)c2ccccc2)CC(C)(C)C1 (stereo not drawn) [compound 40, CYCLANDELATE]	0.84	0.92	0.98	1.09	0.88	0.8
CC(C)(C)NCC(O)c1ccccc1Cl (stereo not drawn) [compound 82, TULOBUTEROL]	0.74	0.87	0.84	1	0.83	0.85
CN(C)CCOC(c1ccccc1)c1ccccc1 [compound 14, diphenhydramine]	1.02	0.97	0.97	1.06	0.98	
O=C(O)COCCN1CCN([C@H](c2ccccc2)c2ccc(Cl)cc2)CC1 [compound 30, LEVOCETIRIZINE]	0.93	0.93	0.85	0.98	0.76	
CCN(CC)CCOC(=O)C1(C2CCCCC2)CCCCC1 [compound 104, DICYCLOMINE]	0.84	0.81	0.82	1.08	0.93	
CN1[C@@H]2CC[C@@H]1CC(OC(=O)C(O)c1ccccc1)C2 (stereo partly drawn) [compound 16, HOMATROPINE]	1.24	1.15	1.09	1.22	1.04	
